A short description of this series: Water solubility of agrochemical active ingredient at 20° C. Type of series: physicochemical.

Take `Cc1nnc(Cl)c(-c2c(F)cccc2F)c1-c1ccccc1` [Pyridachlometyl]: the “water solubility at 20° C.” value worked out at 0.8 ppm.

Regarding Inpyrfluxam, the “water solubility at 20° C.” value was 16.4 ppm.

For the origin of these results see patent US20250374919A1, “AQUEOUS SUSPENSION AGROCHEMICAL COMPOSITION CONTAINING NATURAL RUBBER” (SUMITOMO CHEMICAL COMPANY, LIMITED, priority 2022, published 2025).
